According to ChEMBL document CHEMBL1155629, “Cytotoxic prenyleudesmane diterpenes from the fruits of Dysoxylum kuskusense” (2000):
Values after ≈ are worked out from the molar mass of the structure shown.

Key:
Format in all cases: functional
Conditions in all cases: read-out: ED50 (the source's name)
P388 = assay: Cytotoxicity against mouse P388 cells
A549 = assay: Cytotoxicity against human A549 cells
HT-29 = assay: Cytotoxicity against human HT29 cells

SMILES | EC50 (P388) [µg/mL] | EC50 (A549) [µg/mL] | EC50 (HT-29) [µg/mL]
CC1=CC(=O)C[C@]2(C)CCC(/C(C)=C/C=C/C(C)(C)O)C[C@@H]12 (stereo partly specified) [DYSOKUSONE E] | 2.64 (≈ 8.73 µM) | 3.76 (≈ 12.4 µM) | 4.89 (≈ 16.2 µM)
CC(C)=CC(=O)/C=C(\C)C1CC[C@@]2(C)CC(=O)C=C(C)[C@@H]2C1 (stereo partly specified) [DYSOKUSONE D] | 3.87 (≈ 12.9 µM) | 2.39 (≈ 7.95 µM) | 4.68 (≈ 15.6 µM)
